Results: patent US11918570B2, “Method of treatment for prevention of glucocorticoid toxicity and/or enhancement of muscle regeneration via neutrophil elastase inhibition” (The Research Foundation for The State University of New York, priority 2020, dated 2024)
“Also recorded” adds a separate entry of the source.

Experiments:
[1] = system: myoblasts from a mouse model of Duchenne muscular dystrophy (mdx4cv); assay: NE-induced myoblast death, mdx4cv mouse myoblasts treated with mouse NE; assay type: cell-based; conditions: FIG. 1E
Excerpt: (§1) The number of live cells in each condition was counted and plotted as percentage of the number of live cells in the untreated (Control) condition.

[2] = system: dystrophin-deficient mice (mdx4cv strain); assay: Serum muscle creatine kinase (mCK) activity; assay type: in vivo, mouse; conditions: 12 weeks; FIG. 6
Excerpt: FIG. 6 is a graphical illustration of muscle creatine kinase (mCK) activity for various cohorts of tested mice (including mice pre-treatment with any elastase inhibitor or glucocorticoid) at the conclusion of the 12 week administration period. FIG. 7 is a graphical illustration of MyoD protein levels for various cohorts of tested mice (including mice pre-treatment with any elastase inhibitor or glucocorticoid) at the conclusion of the 12 week administration period. FIG. 8 is a graphical illustration of liver pathology scores for various cohorts of tested mice (including mice pre-treatment, with any elastase inhibitor or glucocorticoid) at the conclusion of the 12 week administration period.

[3] = system: myoblasts isolated from a patient affected by Duchenne muscular dystrophy; assay: NE-induced myoblast death, DMD patient myoblasts treated with human NE; assay type: cell-based; conditions: for rescue of NE-induced myoblast death (number of live cells as percentage of untreated Control): DMD patient myoblasts treated with human NE, FIG. 1D; for effectiveness against human NE compared with mouse NE: comparison of FIG. 1D (hNE) and FIG. 1E (mNE)
Excerpt: as §1

[4] = system: dystrophin-deficient mice (mdx4cv strain); assay: 12-week oral treatment of mdx4cv mice, overall efficacy; assay type: in vivo, mouse; conditions: elastase inhibitor orally, concomitantly with oral prednisolone
Protocol: FIG. 1F is a graphical illustration of data gathered from in vivo testing efficacy of a placebo, as compared to the elastase inhibitor Alvelestat, alone at various administration concentrations, and in combination with the glucocorticoid prednisolone at various administration concentrations. In this, and the following figures, the abbreviation “Plcb” refers to administration of a placebo, the abbreviation “Pred” refers to administration of prednisolone at 1 mg/kg/day, the abbreviation “Alv10” refers to the administration of the elastase inhibitor alvelestat at 10 mg/kg/day, and the abbreviation “Alv25” refers to the administration of the elastase inhibitor alvelestat at 25 mg/kg/day.
The administration of the various compounds occurred over a 12-week period, in a controlled randomized, double blinded test using dystrophin-deficient mice (mdx4cv strain). In FIG. 1F, beginning during the tenth week of the test, the mice were exposed to an activity wheel, with the cumulative distance plotted on the y-axis and the number of days spent with the exercise wheel plotted on the x-axis.

[5] = system: dystrophin-deficient mice (mdx4cv strain); assay: Muscle fibrosis, Sirius Red staining of gastrocnemius cryosections; assay type: in vivo, mouse; conditions: 12 weeks, FIG. 13
Protocol: FIG. 13 illustrates fibrosis levels of the various cohorts, assessed on cryosections of gastrocnemius muscles from the mice, which were stained with Sirius Red to detect fibrillar collagen. Untreated dystrophic mice were euthanized at the age when treatments start (Pre-tr) and used as baseline for disease progression. Images were analyzed for their fluorescence intensity (Sirius red emits fluorescence in the yellow-red band of the light spectrum) as a measure of collagen abundance per unit area (e.g. per pixel), which was multiplied by the total Sirius red+ area as a proxy for 3D evaluation of fibrillar collagen content.

Human NE (hNE) = target: T1, Human NE (hNE) (Homo sapiens, UniProt P08246); assay: Human NE activity in vitro, cumulative elastase activity over time; assay type: biochemical; conditions: hNE incubated with various concentration of inhibitor; FIGS. 1A-1C
T1 sequence (P08246 30-267): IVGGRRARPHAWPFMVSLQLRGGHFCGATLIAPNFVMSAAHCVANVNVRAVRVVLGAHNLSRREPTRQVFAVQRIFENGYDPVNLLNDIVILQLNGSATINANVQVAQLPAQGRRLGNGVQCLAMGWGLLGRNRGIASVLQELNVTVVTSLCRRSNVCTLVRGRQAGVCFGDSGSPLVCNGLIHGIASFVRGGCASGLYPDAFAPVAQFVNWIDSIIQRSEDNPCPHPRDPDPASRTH
Protocol: In FIGS. 1A-1C Human NE (hNE) was incubated for the indicated amount of time (X-axis) either alone (Control, black line) or in the presence of various concentration of inhibitor, as indicated in each graph (colored lines). The cumulative elastase activity detected over time is plotted.
Several methods for measuring elastase enzymatic activity are known in the art. Merely by way of example, elastase activity can be determined by measuring the fluorescence emitted by a fluorigenic peptide such as MeOSuc-Ala-Ala-Pro-Val-AFC or Suc-Ala-Ala-Ala-AMC. Fluorescence may be measured, for example, using a plate reader. Other suitable assays for measuring elastase activity will be known to the skilled person. These may include measuring the product generated by incubation with a fluorescently labelled peptide such as 5-FAM-Arg-Glu-Ala-Val-Val-Tyr or 5-FAM-Ala-Ala-Ala-Phe-Tyr-Asp using an instrument that detects the size of the fluorescently labelled probe.

[6] = system: dystrophin-deficient mice (mdx4cv strain); assay: Myofiber necrosis (mIgG uptake on immunostained cryosections); assay type: in vivo, mouse; conditions: 12 weeks, FIG. 10
Protocol: In FIG. 10, myofiber necrosis was measured by calculating the percentage of myofibers that uptake mouse immunoglobulins (mIgG) on immunostained cryosections. IgG are normally present only in the blood and the extracellular matrix within tissues, but are uptaken by necrotic cells that have permeable plasma membranes due to cell damage damage.

[7] = system: dystrophin-deficient mice (mdx4cv strain); assay: Muscle mass: quadriceps wet weight and diaphragm cross-sectional area; assay type: in vivo, mouse; conditions: 12 weeks; for prednisolone-induced loss of muscle mass / muscle atrophy: in combination with prednisolone, FIGS. 15, 16; for muscle mass (quadriceps wet weight): single agent, FIG. 15
Excerpt: FIG. 15 illustrates the wet weight of quadriceps muscle groups dissected from dystrophic mice at treatment start (baseline, Pre-Tr) or after the 12 week administration period, at the time of euthanasia.

[8] = system: dystrophin-deficient mice (mdx4cv strain); assay: Diaphragm strip tetanic force and residual force; assay type: in vivo, mouse
[9] = system: dystrophin-deficient mice (mdx4cv strain); assay: Inflammation transcripts in muscle by RNA sequencing; assay type: in vivo, mouse; conditions: elastase inhibitor alone, 12 weeks; FIGS. 11A, 11B
Protocol: In FIGS. 11A and 11B, mRNA was extracted from muscles of the mice, then transcripts were quantified using next generation sequencing. […] Mdx^4cv mice were treated for 12 weeks with either placebo (Plcb, gray boxes) or prednisolone (1 mg/Kg/day, cyan boxes) alone or in combination with the elastase inhibitor alvelestat (Alv) at two different doses (10 mg/Kg/day, pink boxes; 25 mg/Kg/day, purple boxes). Each box-and-whiskers graph represent the levels of a marker of the immune response detected by RNA sequencing (n=6 per treatment group, Y-axis scale on the left). The overlayed line graphs show the effect size of each treatment vs Plcb calculated and plotted as Cohen's d (Y-axis scale on the right). Significance of each treatment vs Plcb: ***=p<0.001, **=p<0.01, *=p<0.05.

Structure (SMILES)	rescue of NE-induced myoblast death (number of live cells as percentage of untreated Control) [1]	rescue of NE-induced myoblast death (number of live cells as percentage of untreated Control) [3]	effectiveness against human NE compared with mouse NE [3]	inhibiting human NE activity in vitro (Human NE (hNE))	muscle mass (quadriceps wet weight) [7]	also measured
CC(=O)C1=C(C)N(c2cccc(C(F)(F)F)c2)C(=O)N[C@@H]1c1ccc(C#N)nc1 [BAY-678]	similarly effective at blocking NE-induced myoblast death	–	–	–	–	–
Cc1c(-c2ccnn2C)cc(C(=O)NCc2ccc(S(C)(=O)=O)cn2)c(=O)n1-c1cccc(C(F)(F)F)c1 [Alvelestat]	similarly effective at blocking NE-induced myoblast death	similarly effective at rescuing NE-induced myoblast cell death; also recorded: similarly effective at blocking NE-induced myoblast death	most effective against human NE	similarly potent	increased it	serum mCK levels (muscle damage) [2]: lowers serum mCK levels; prednisolone efficacy [4]: enhances prednisolone efficacy; muscle fibrosis ([5]; alone): decreases muscle fibrosis; prednisolone-induced fibrosis ([5]; in combination with prednisolone): prevents prednisolone-induced fibrosis; myofiber necrosis ([6]; alvelestat alone, 10 and 25 mg/kg/day): decreases myofiber necrosis in a dose-dependent manner; also recorded: reduces necrosis; myofiber necrosis / myofiber stability ([6]; combined with prednisolone 1 mg/kg/day): additive affect on myofiber stability; prednisolone-induced loss of muscle mass / muscle atrophy [7]: partly rescued the prednisolone-induced loss of muscle mass in a dose-dependent manner that appears inversely correlated; prednisolone-induced loss of muscle mass / muscle atrophy ([7]; listed as AZD9668): reduces prednisolone induced muscle atrophy; diaphragm weakness (specific tetanic force, residual force) ([8]; alone and in combination with prednisolone, FIGS. 17-19): affects diaphragm weakness independent of muscle loss in a complex manner; inflammation (immune response transcripts) [9]: does not significantly affect inflammation
COc1cc(C(C)C)c2c(c1)S(=O)(=O)N(COc1cc(=O)n3cccc(OCCN4CCCCC4)c3n1)C2=O [SSR69071]	similarly effective at blocking NE-induced myoblast death	similarly effective at rescuing NE-induced myoblast cell death; also recorded: similarly effective at blocking NE-induced myoblast death	most effective against human NE	similarly potent	–	–
C[C@]12C=CC(=O)C=C1CC[C@@H]1[C@@H]2[C@@H](O)C[C@@]2(C)[C@H]1CC[C@]2(O)C(=O)CO [prednisolone]	–	–	–	–	dramatically decreased muscle mass	residual force at 15 seconds after peak force (percentage of the peak force) ([8]; diaphragm strips, 20 second tetanus, FIG. 19): decline in residual force, which is greater for prednisolone alone
